Assay: Hydrogen peroxide (H2O2) inhibition assay (fluorescence, DCF/horseradish peroxidase)
Type: biochemical
Settings: for IC50: HCl salt tested where HCl salt MW is given; for Fe-ASC % (cf. 0.4 uM Fe/Asc; cf. CQ, CQ = 100%) / Cu % ASC (cf. CQ = 100%) / Zn % ASC (cf. CQ = 100%): ascorbic acid as reducing substrate; for Fe-ASC % (cf. 0.4 uM Fe/Asc; cf. CQ, CQ = 100%) / Fe-DA % (cf. 0.4 uM Fe/DA; cf. CQ, CQ = 100%): test compound 0.4 μM, lower values = greater inhibition of H2O2; for Fe-DA % (cf. 0.4 uM Fe/DA; cf. CQ, CQ = 100%): dopamine as reducing substrate
Method: Assay 1. Hydrogen Peroxide Assay
H2O2 is a strong oxidizer and a highly reactive oxygen species that is known to be toxic to surrounding proteins and organelles, inhibiting their function. […] […] H2O2 generated by the system is assessed by measuring the specific fluorescence profile at the excitation and emission wavelengths of 485 and 530 nm respectively, in the presence of test compound. Test compounds were dissolved in DMSO and tested at concentrations of 0.4 μM. Test compounds are ranked according to their capacity to inhibit H2O2 generated by the system where lower values reflect greater ability to inhibit H2O2 production.

Structure (SMILES) | IC50 [nM] | Fe-ASC % (cf. 0.4 uM Fe/Asc; cf. CQ, CQ = 100%) [% ASC] | Cu % ASC (cf. CQ = 100%) | Zn % ASC (cf. CQ = 100%) | Fe-DA % (cf. 0.4 uM Fe/DA; cf. CQ, CQ = 100%) [%]
CCCc1cnc2c(O)c(Cl)ccn2c1=O [Compound 1235] | 290 | 86 |  |  | 
CCCCCCCCNC(=O)c1cnc2c(O)cccn2c1=O [Compound 1394] | 720 | 96 |  |  | 
COCc1cnc2c(O)cccn2c1=O [Compound 1398, 9-Hydroxy-3-(methoxymethyl)-4H-pyrido[1,2-a]pyrimidin-4-one] | 1290 | 39 |  |  | 
CCNCc1cc(=O)n2cccc(O)c2n1 [Compound 1400] | 330 | 32 |  |  | 
CN(C)Cc1cc(=O)n2cccc(O)c2n1 [Compound 1401] | 420 | 55 |  |  | 
CCN1CCN(Cc2cc(=O)n3cccc(O)c3n2)CC1 [Compound 1402] | 1680 | 36 |  |  | 
O=c1cc(CN2CCCCC2)nc2c(O)cccn12 [Compound 1403] | 1700 | 49 |  |  | 
CCCCNCc1cc(=O)n2cccc(O)c2n1 [Compound 1405] | 290 | 35 |  |  | 
O=c1cc(CNCc2ccc(Cl)cc2)nc2c(O)cccn12 [Compound 1406] | 1140 |  |  |  | 
CC(C)CNCc1cc(=O)n2cccc(O)c2n1 [Compound 1408, 9-Hydroxy-2-((isobutylamino)methyl)-4H-pyrido[1,2-a]pyrimidin-4-one hydrogen chloride] | 430 |  |  |  | 
O=c1cc(CNCc2ccc(F)cc2)nc2c(O)cccn12 [Compound 1409] | 140 |  |  |  | 
CCCCCCCCNCc1cc(=O)n2cccc(O)c2n1 [Compound 1410] | 430 | 62 |  |  | 
O=c1cc(CNCC2CC2)nc2c(O)cccn12 [Compound 1411] | 330 | 36 |  |  | 
O=c1cc(CNCCCN2CCOCC2)nc2c(O)cccn12 [Compound 1412] | 130 | 29 |  |  | 
CCCCCNCc1cc(=O)n2cccc(O)c2n1 [Compound 1413] | 190 | 42 |  |  | 
O=c1cc(CNCc2ccccn2)nc2c(O)cccn12 [Compound 1414] | < 100 | 29 |  |  | 
O=c1cc(CNCCc2ccccn2)nc2c(O)cccn12 [Compound 1415] | < 100 | 34 |  |  | 
O=c1cc(CNCCN2CCCC2)nc2c(O)cccn12 [Compound 1417] | 130 | 29 |  |  | 
O=c1cc(CNCCN2CCOCC2)nc2c(O)cccn12 [Compound 1418] | 240 | 30 |  |  | 
CCCCCNC(=O)c1cnc2c(O)cccn2c1=O [Compound 1422] | 680 | 63 |  |  | 
CCCNC(=O)c1cnc2c(O)cccn2c1=O [Compound 1423] | 380 | 45 |  |  | 
CN(C)Cc1cnc2c(O)cccn2c1=O [Compound 1424, 3-((Dimethylamino)methyl)-9-hydroxy-4H-pyrido[1,2-a]pyrimidin-4-one hydrogen chloride] | 800 | 48 |  |  | 
CC(C)CNC(=O)c1cnc2c(O)cccn2c1=O [Compound 1425] | 340 |  | Cu 212% ASC | Zn 69% ASC | 76

Structure (SMILES) | IC50 [nM] | Fe-ASC % (cf. 0.4 uM Fe/Asc; cf. CQ, CQ = 100%) [% ASC] | Cu % ASC (cf. CQ = 100%) | Zn % ASC (cf. CQ = 100%) | Fe-DA % (cf. 0.4 uM Fe/DA; cf. CQ, CQ = 100%) [%]
O=C(NCCN1CCCC1)c1cnc2c(O)cccn2c1=O [Compound 1426] | 320 |  | Cu 212% ASC | Zn 121% ASC | 62
O=C(NCCc1ccccn1)c1cnc2c(O)cccn2c1=O [Compound 1427] | 180 |  | Cu 212% ASC | Zn 61% ASC | 74
O=C(NCC1CC1)c1cnc2c(O)cccn2c1=O [Compound 1428] | 430 |  | Cu 212% ASC | Zn 74% ASC | 75
O=C(NCc1ccc(Cl)cc1)c1cnc2c(O)cccn2c1=O [Compound 1429] | 390 |  | Cu 54% ASC | Zn 57% ASC | 148
O=C(NCc1ccc2c(c1)OCO2)c1cnc2c(O)cccn2c1=O [Compound 1432] | 410 | 65 |  |  | 66
CCNC(=O)c1cnc2c(O)cccn2c1=O [Compound 1433] | 390 | 152 |  |  | 73
O=c1cc(CNC2CCCC2)nc2c(O)cccn12 [Compound 1435] | 230 | 133 |  |  | 90
O=C(NC1CCCC1)c1cnc2c(O)cccn2c1=O [Compound 1436] | 210 | 190 |  |  | 101
O=C(NCc1ccc(F)cc1F)c1cnc2c(O)cccn2c1=O [Compound 1437] | 470 | 71 |  |  | 71
CCCCCCNCc1cc(=O)n2cccc(O)c2n1 [Compound 1438] | 240 | 143 |  |  | 47
CCN(CC)Cc1cc(=O)n2cccc(O)c2n1 [Compound 1439] | > 10000 | 156 |  |  | 68
CCCCCCNC(=O)c1cnc2c(O)cccn2c1=O [Compound 1440] | 690 | 66 |  |  | 48
O=c1cc(CNCc2ccccc2)nc2c(O)cccn12 [Compound 1442] | 240 | 128 |  |  | 58
COc1ccc(CNCc2cc(=O)n3cccc(O)c3n2)cc1 [Compound 1443] | 250 | 116 |  |  | 52
O=c1cc(CNc2ccc(F)cc2F)nc2c(O)cccn12 [Compound 1444] | 350 | 105 |  |  | 53
CNC(=O)c1cnc2c(O)cccn2c1=O [Compound 1445] | < 100 | 176 |  |  | 45
O=C(NCc1cccnc1)c1cnc2c(O)cccn2c1=O [Compound 1446] | 340 | 218 |  |  | 56
O=C(NCc1ccccn1)c1cnc2c(O)cccn2c1=O [Compound 1447] | 240 | 112 |  |  | 52
O=c1cc(CNc2cccnc2)nc2c(O)cccn12 [Compound 1448] | 460 | 137 |  |  | 66
O=C(NCc1ccncc1)c1cnc2c(O)cccn2c1=O [Compound 1450] | 380 | 126 |  |  | 55
O=c1cc(CNc2ccc(F)cc2)nc2c(O)cccn12 [Compound 1451] | 580 | 136 |  |  | 67
O=C(NCc1ccc(Cl)cc1Cl)c1cnc2c(O)cccn2c1=O [Compound 1452] | 540 | 60 |  |  | 49
O=C(NCc1ccc(C(F)(F)F)cc1)c1cnc2c(O)cccn2c1=O [Compound 1453] | 340 | 79 |  |  | 59

Source: US20210230159A1, “4H-PYRIDO[1,2-A]PYRIMIDIN-4-ONE COMPOUNDS” (Prana Biotechnology Limited, priority 2014, published 2021)
